Some test systems named below: KM12 colon; IGROV1 ovarian; SF-268 CNS; LOX IMVI melanoma; OVCAR-5 ovarian; SF-539 CNS; MOLT-4 leukemia; PC-3 prostate; UO-31 renal; MALME-3M melanoma; A498 renal; RXF 393 renal.
Holding throughout (test): growth of human tumour cells (NCI), 48 h

This note sets out measurements from PubChem BioAssay (NCI).

Structures are written as SMILES.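 Assay format: 96-well plates, 48-hour exposure. GI50 = concentration required for 50% inhibition of growth. At the TGI there is no net growth.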

For `CCOc1ncn(-c2ccc(NC(=S)Nc3cccc(O)c3)cc2)n1`, the TGI in the assay with KM12 colon, in the assay on IGROV1 ovarian, in the assay on SF-268 CNS, with LOX IMVI melanoma, in the assay on OVCAR-5 ovarian and in the assay on SF-539 CNS was more than 100 µM throughout. Further, the TGI in the assay on MOLT-4 leukemia, in the assay with PC-3 prostate and in the assay with UO-31 renal was more than 100 µM each time.
As for `COC[C@H]1C(=O)NCC(=O)N2NCCC[C@H]2C(=O)N(O)[C@H](C)C(=O)O[C@@H](C(C)C)[C@H](NC(=O)[C@](C)(O)[C@]2(O)CC[C@@H](CC(C)C)[C@H](C)O2)C(=O)N2NCCC[C@@H]2C(=O)N1O`, the GI50 in the assay with KM12 colon is 0.01 µM; in the assay on MALME-3M melanoma, 0.0142 µM; in the assay with OVCAR-5 ovarian, 0.015 µM; in the assay on SF-539 CNS, 0.0146 µM; with MOLT-4 leukemia, less than 0.01 µM; with PC-3 prostate, 0.0174 µM. The GI50 with UO-31 renal was 0.0192 µM. The TGI turned out to be 0.0241 µM in the assay with KM12 colon; 0.0291 µM in the assay with MALME-3M melanoma; 0.0333 µM with OVCAR-5 ovarian; 0.0285 µM in the assay with SF-539 CNS; 0.0464 µM in the assay on MOLT-4 leukemia; 0.0326 µM with PC-3 prostate. For the same compound, in the assay with UO-31 renal, the TGI is 0.0458 µM.
In the case of `CC1(C)CCc2c(cc3c(c2O)CCC(C)(C)O3)O1`, the TGI in the assay with KM12 colon, in the assay on A498 renal, in the assay on MALME-3M melanoma, with IGROV1 ovarian, with SF-268 CNS and in the assay with OVCAR-5 ovarian was more than 100 µM each time. The TGI with SF-539 CNS, with MOLT-4 leukemia, in the assay on PC-3 prostate and with UO-31 renal was more than 100 µM each time.
With `Cc1ccc(OP2(=O)Oc3ccc4ccccc4c3CN2c2ccc(Cl)cc2)cc1C` (stereo not given), the TGI in the assay with KM12 colon, in the assay with A498 renal, in the assay on MALME-3M melanoma, in the assay with IGROV1 ovarian, with SF-268 CNS and with LOX IMVI melanoma was more than 100 µM throughout. Besides, the TGI in the assay with OVCAR-5 ovarian, in the assay with SF-539 CNS, with MOLT-4 leukemia, with RXF 393 renal and in the assay on UO-31 renal was more than 100 µM in each case.
In the case of `C=C/C(C)=C/[C@H](C)C(=O)C[C@H](O)CC1CC(=O)NC(=O)C1`, the TGI in the assay with KM12 colon is more than 100 µM; with A498 renal it was more than 100 µM; in the assay on MALME-3M melanoma, more than 100 µM; with IGROV1 ovarian it was more than 86.7 µM; in the assay with SF-268 CNS it was more than 100 µM; in the assay with LOX IMVI melanoma, more than 100 µM. In addition, the TGI with OVCAR-5 ovarian, in the assay with SF-539 CNS, with MOLT-4 leukemia, with RXF 393 renal and in the assay with UO-31 renal was more than 100 µM throughout.
As for `COc1ccc2c(O)c3[n+](cc2c1OC)CCc1cc2c(cc1-3)OCO2`, the TGI in the assay with KM12 colon, in the assay on A498 renal, in the assay on IGROV1 ovarian, in the assay with SF-268 CNS, in the assay on LOX IMVI melanoma and with OVCAR-5 ovarian was more than 100 µM in each case. For the same compound, the TGI is more than 100 µM in the assay with SF-539 CNS, more than 100 µM in the assay on MOLT-4 leukemia, more than 100 µM in the assay on PC-3 prostate and 85.7 µM in the assay on RXF 393 renal.
Take `Nc1cc2c(cc1[N+](=O)[O-])[nH]c1c(-c3ccccc3)nccc12`: the TGI is 35.2 µM in the assay on KM12 colon; 79.7 µM in the assay on A498 renal; 52.1 µM with MALME-3M melanoma; 35.9 µM with IGROV1 ovarian; more than 100 µM with SF-268 CNS; 28.8 µM in the assay on LOX IMVI melanoma. The TGI in the assay with OVCAR-5 ovarian was 98.3 µM; in the assay on SF-539 CNS it was more than 75.4 µM; in the assay with MOLT-4 leukemia it was 19.8 µM; in the assay with RXF 393 renal it was 73.1 µM; with UO-31 renal it was 28.9 µM.
With `COc1ccc(C(=O)C2CC3(CCC2(O)c2ccc(OC)cc2)CC(=O)Nc2ccccc2C3=O)cc1` (stereo not given), the TGI in the assay with A498 renal, in the assay on MALME-3M melanoma, in the assay with IGROV1 ovarian, in the assay on SF-268 CNS, in the assay with LOX IMVI melanoma and in the assay with OVCAR-5 ovarian was more than 100 µM each time. The TGI in the assay on SF-539 CNS, in the assay with PC-3 prostate, with RXF 393 renal and in the assay with UO-31 renal was more than 100 µM throughout.
Turning to `CO/C(=N\N=C(/C)C(F)(F)F)c1ccncc1`, the TGI with KM12 colon, in the assay with A498 renal, in the assay on MALME-3M melanoma, in the assay with IGROV1 ovarian, with OVCAR-5 ovarian and in the assay on MOLT-4 leukemia was more than 100 µM throughout. Also, the TGI in the assay with PC-3 prostate, in the assay with RXF 393 renal and with UO-31 renal was more than 100 µM each time.
